In brackets after ≈: the same amount, converted by molar mass.
How the values were obtained:
Assay type in all cases: functional
Klebsiella pneumoniae = assay: Antibacterial activity against Klebsiella pneumoniae after 3 to 4 days by serial plate dilution method
Staphylococcus aureus = assay: Antibacterial activity against Staphylococcus aureus ATCC 25923 after 3 to 4 days by serial plate dilution method
Aspergillus fumigatus = assay: Antifungal activity against Aspergillus fumigatus NCIM 902 after 3 to 4 days by serial plate dilution method
Aspergillus flavus = assay: Antifungal activity against Aspergillus flavus NCIM 524 after 3 to 4 days by serial plate dilution method
Pseudomonas aeruginosa = assay: Antibacterial activity against Pseudomonas aeruginosa ATCC 27853 after 3 to 4 days by serial plate dilution method
Talaromyces marneffei = assay: Antifungal activity against Penicillium marneffei after 3 to 4 days by serial plate dilution method
Rattus norvegicus = assay: Antiinflammatory activity in Wister albino rat assessed as inhibition of carrageenan-induced paw edema at 10 mg/kg, po administered 30 mins before carrageenan treatment measured after 3 hrs by plethysmometric analysis
[1] = test system: Trichophyton mentagrophytes; assay: Antifungal activity against Trichophyton mentagrophytes after 3 to 4 days by serial plate dilution method
Escherichia coli = assay: Antibacterial activity against Escherichia coli ATCC 25922 after 3 to 4 days by serial plate dilution method
Mus musculus [2] = assay: Analgesic activity in Swiss albino mouse assessed as inhibition of heat-induced paw licking or jumping behavior at 10 mg/kg, po administered after 15 sec of heat challenge measured after 60 mins post dose by Eddy's hot plate method; conditions: 1 h
Mus musculus [3] = assay: Analgesic activity in Swiss albino mouse assessed as inhibition of heat-induced paw licking or jumping behavior at 10 mg/kg, po administered after 15 sec of heat challenge measured after 90 mins post dose by Eddy's hot plate method; conditions: 1.5 h
Mus musculus [4] = assay: Analgesic activity in Swiss albino mouse assessed as inhibition of heat-induced paw licking or jumping behavior at 10 mg/kg, po administered after 15 sec of heat challenge measured after 30 mins post dose by Eddy's hot plate method; conditions: 0.5 h

Row | MIC (Klebsiella pneumoniae) [mg/L] | MIC (Staphylococcus aureus) [mg/L] | MIC (Aspergillus fumigatus) [mg/L] | MIC (Aspergillus flavus) [mg/L] | MIC (Pseudomonas aeruginosa) [mg/L] | MIC (Talaromyces marneffei) [mg/L] | MIC [1] [mg/L] | MIC (Escherichia coli) [mg/L] | SMILES | inhibition in vivo at 10 mg/kg (Rattus norvegicus) [%] | inhibition in vivo at 10 mg/kg (Mus musculus [2]) [%] | inhibition in vivo at 10 mg/kg (Mus musculus [3]) [%] | inhibition in vivo at 10 mg/kg (Mus musculus [4]) [%]
1 | 6.25 (≈ 14 µM) | 6.25 (≈ 14 µM) | 6.25 (≈ 14 µM) | 6.25 (≈ 14 µM) | 6.25 (≈ 14 µM) | 6.25 (≈ 14 µM) | 6.25 (≈ 14 µM) | 6.25 (≈ 14 µM) | CSc1ccc(Cc2nn(CN3CCN(c4ccc(Cl)cc4)CC3)c(=S)o2)cc1 | 71.1 | – | – | –
2 | 12.5 (≈ 26.5 µM) | 12.5 (≈ 26.5 µM) | 12.5 (≈ 26.5 µM) | 12.5 (≈ 26.5 µM) | 12.5 (≈ 26.5 µM) | 12.5 (≈ 26.5 µM) | 12.5 (≈ 26.5 µM) | 12.5 (≈ 26.5 µM) | CC(C)Cc1ccc(C(C)c2nn(CN3CCN(c4ccc(Cl)cc4)CC3)c(=S)o2)cc1 (stereo not drawn) | 76.6 | 28 | 35.8 | 22.8
3 | 6.25 (≈ 14.5 µM) | 6.25 (≈ 14.5 µM) | 6.25 (≈ 14.5 µM) | 6.25 (≈ 14.5 µM) | 6.25 (≈ 14.5 µM) | 6.25 (≈ 14.5 µM) | 6.25 (≈ 14.5 µM) | 6.25 (≈ 14.5 µM) | CSc1ccc(Cc2nn(CN3CCN(c4ccc(F)cc4)CC3)c(=S)o2)cc1 | 68.7 | – | – | –
4 | 12.5 (≈ 28.2 µM) | 12.5 (≈ 28.2 µM) | 12.5 (≈ 28.2 µM) | 12.5 (≈ 28.2 µM) | 12.5 (≈ 28.2 µM) | 12.5 (≈ 28.2 µM) | 12.5 (≈ 28.2 µM) | 12.5 (≈ 28.2 µM) | COc1ccc(N2CCN(Cn3nc(Cc4ccc(SC)cc4)oc3=S)CC2)cc1 | 33.7 | – | – | –
5 | 12.5 (≈ 37.3 µM) | 12.5 (≈ 37.3 µM) | 25 (≈ 74.5 µM) | 25 (≈ 74.5 µM) | 12.5 (≈ 37.3 µM) | 25 (≈ 74.5 µM) | 25 (≈ 74.5 µM) | 12.5 (≈ 37.3 µM) | CSc1ccc(Cc2nn(CN3CCCCC3)c(=S)o2)cc1 | – | – | – | –
6 | 12.5 (≈ 27.4 µM) | 12.5 (≈ 27.4 µM) | 12.5 (≈ 27.4 µM) | 12.5 (≈ 27.4 µM) | 12.5 (≈ 27.4 µM) | 12.5 (≈ 27.4 µM) | 12.5 (≈ 27.4 µM) | 12.5 (≈ 27.4 µM) | CCOc1ccccc1N1CCN(Cn2nc(Cc3ccc(SC)cc3)oc2=S)CC1 | 42.5 | – | – | –
7 | 6.25 (≈ 13.7 µM) | 6.25 (≈ 13.7 µM) | 6.25 (≈ 13.7 µM) | 6.25 (≈ 13.7 µM) | 6.25 (≈ 13.7 µM) | 6.25 (≈ 13.7 µM) | 6.25 (≈ 13.7 µM) | 6.25 (≈ 13.7 µM) | CC(C)Cc1ccc(C(C)c2nn(CN3CCN(c4ccc(F)cc4)CC3)c(=S)o2)cc1 (stereo not drawn) | 75.4 | 45 | 57 | 32.6
8 | 6.25 (≈ 13.7 µM) | 6.25 (≈ 13.7 µM) | 25 (≈ 54.6 µM) | 25 (≈ 54.6 µM) | 6.25 (≈ 13.7 µM) | 25 (≈ 54.6 µM) | 25 (≈ 54.6 µM) | 6.25 (≈ 13.7 µM) | CSc1ccc(Cc2nn(CN3CCN(c4ccc([N+](=O)[O-])cc4)CC3)c(=S)o2)cc1 | 56.6 | – | – | –
9 | 12.5 (≈ 37.1 µM) | 12.5 (≈ 37.1 µM) | 12.5 (≈ 37.1 µM) | 12.5 (≈ 37.1 µM) | 12.5 (≈ 37.1 µM) | 12.5 (≈ 37.1 µM) | 12.5 (≈ 37.1 µM) | 12.5 (≈ 37.1 µM) | CSc1ccc(Cc2nn(CN3CCNCC3)c(=S)o2)cc1 | – | – | – | –
10 | 6.25 (≈ 13.4 µM) | 6.25 (≈ 13.4 µM) | 12.5 (≈ 26.8 µM) | 12.5 (≈ 26.8 µM) | 6.25 (≈ 13.4 µM) | 12.5 (≈ 26.8 µM) | 12.5 (≈ 26.8 µM) | 6.25 (≈ 13.4 µM) | COc1ccc(N2CCN(Cn3nc(C(C)c4ccc(CC(C)C)cc4)oc3=S)CC2)cc1 (stereo not drawn) | 42.6 | – | – | –
11 | 12.5 (≈ 37 µM) | 12.5 (≈ 37 µM) | 6.25 (≈ 18.5 µM) | 6.25 (≈ 18.5 µM) | 12.5 (≈ 37 µM) | 6.25 (≈ 18.5 µM) | 6.25 (≈ 18.5 µM) | 12.5 (≈ 37 µM) | CSc1ccc(Cc2nn(CN3CCOCC3)c(=S)o2)cc1 | 35.2 | – | – | –
12 | 12.5 (≈ 35.7 µM) | 12.5 (≈ 35.7 µM) | 25 (≈ 71.3 µM) | 25 (≈ 71.3 µM) | 12.5 (≈ 35.7 µM) | 25 (≈ 71.3 µM) | 25 (≈ 71.3 µM) | 12.5 (≈ 35.7 µM) | CSc1ccc(Cc2nn(CN3CCN(C)CC3)c(=S)o2)cc1 | – | – | – | –

The next lines start with the compound.

Row | SMILES | MIC (Klebsiella pneumoniae) [mg/L] | MIC (Staphylococcus aureus) [mg/L] | MIC (Aspergillus fumigatus) [mg/L] | MIC (Aspergillus flavus) [mg/L] | MIC (Pseudomonas aeruginosa) [mg/L] | MIC (Talaromyces marneffei) [mg/L] | MIC [1] [mg/L] | MIC (Escherichia coli) [mg/L] | inhibition in vivo at 10 mg/kg (Rattus norvegicus) [%] | inhibition in vivo at 10 mg/kg (Mus musculus [2]) [%] | inhibition in vivo at 10 mg/kg (Mus musculus [3]) [%] | inhibition in vivo at 10 mg/kg (Mus musculus [4]) [%]
13 | CCOc1ccccc1N1CCN(Cn2nc(C(C)c3ccc(CC(C)C)cc3)oc2=S)CC1 (stereo not drawn) | 25 (≈ 52 µM) | 25 (≈ 52 µM) | 12.5 (≈ 26 µM) | 12.5 (≈ 26 µM) | 25 (≈ 52 µM) | 12.5 (≈ 26 µM) | 12.5 (≈ 26 µM) | 25 (≈ 52 µM) | 44.6 | – | – | –
14 | O=C(O)Cc1ccccc1Nc1c(Cl)cccc1Cl [DICLOFENAC SODIUM] | – | – | – | – | – | – | – | – | 73.7 | 40.8 | 53.6 | 29.2
15 | CC(C)Cc1ccc(C(C)c2nn(CN3CCNCC3)c(=S)o2)cc1 (stereo not drawn) | 12.5 (≈ 34.7 µM) | 12.5 (≈ 34.7 µM) | 12.5 (≈ 34.7 µM) | 12.5 (≈ 34.7 µM) | 12.5 (≈ 34.7 µM) | 12.5 (≈ 34.7 µM) | 12.5 (≈ 34.7 µM) | 12.5 (≈ 34.7 µM) | – | – | – | –
16 | CCOC(=O)C1CCN(Cn2nc(C(C)c3ccc(CC(C)C)cc3)oc2=S)CC1 (stereo not drawn) | 12.5 (≈ 29 µM) | 12.5 (≈ 29 µM) | 12.5 (≈ 29 µM) | 12.5 (≈ 29 µM) | 12.5 (≈ 29 µM) | 12.5 (≈ 29 µM) | 12.5 (≈ 29 µM) | 12.5 (≈ 29 µM) | 73.9 | 41.8 | 55.2 | 30.6
17 | CC(C)Cc1ccc(C(C)c2nn(CN3CCN(C)CC3)c(=S)o2)cc1 (stereo not drawn) | 12.5 (≈ 33.4 µM) | 12.5 (≈ 33.4 µM) | 25 (≈ 66.7 µM) | 25 (≈ 66.7 µM) | 12.5 (≈ 33.4 µM) | 25 (≈ 66.7 µM) | 25 (≈ 66.7 µM) | 12.5 (≈ 33.4 µM) | – | – | – | –
18 | CC(C)Cc1ccc(C(C)c2nn(CN3CCN(c4cccc(Cl)c4)CC3)c(=S)o2)cc1 (stereo not drawn) | 25 (≈ 53.1 µM) | 25 (≈ 53.1 µM) | 6.25 (≈ 13.3 µM) | 6.25 (≈ 13.3 µM) | 25 (≈ 53.1 µM) | 6.25 (≈ 13.3 µM) | 6.25 (≈ 13.3 µM) | 25 (≈ 53.1 µM) | 64.3 | – | – | –
19 | CC(C)Cc1ccc(C(C)c2nn(CN3CCOCC3)c(=S)o2)cc1 (stereo not drawn) | 6.25 (≈ 17.3 µM) | 6.25 (≈ 17.3 µM) | 6.25 (≈ 17.3 µM) | 6.25 (≈ 17.3 µM) | 6.25 (≈ 17.3 µM) | 6.25 (≈ 17.3 µM) | 6.25 (≈ 17.3 µM) | 6.25 (≈ 17.3 µM) | 69.5 | – | – | –
20 | O=C(O)c1cn(C2CC2)c2cc(N3CCNCC3)c(F)cc2c1=O [CIPROFLOXACIN] | 6.25 (≈ 18.9 µM) | 1.56 (≈ 4.71 µM) | – | – | – | – | – | – | – | – | – | –
21 | CC(C)Cc1ccc(C(C)c2nn(CN3CCCCC3)c(=S)o2)cc1 (stereo not drawn) | 25 (≈ 69.5 µM) | 25 (≈ 69.5 µM) | 25 (≈ 69.5 µM) | 25 (≈ 69.5 µM) | 25 (≈ 69.5 µM) | 25 (≈ 69.5 µM) | 25 (≈ 69.5 µM) | 25 (≈ 69.5 µM) | – | – | – | –
22 | CCOC(=O)C1CCN(Cn2nc(Cc3ccc(SC)cc3)oc2=S)CC1 | 12.5 (≈ 30.7 µM) | 12.5 (≈ 30.7 µM) | 12.5 (≈ 30.7 µM) | 12.5 (≈ 30.7 µM) | 12.5 (≈ 30.7 µM) | 12.5 (≈ 30.7 µM) | 12.5 (≈ 30.7 µM) | 12.5 (≈ 30.7 µM) | 57.4 | – | – | –
23 | Cc1cc(C2CCCCC2)n(O)c(=O)c1.NCCO [CICLOPIROX OLAMINE] | – | – | 6.25 | 6.25 | – | 1.56 | 6.25 | – | – | – | – | –

Source: ChEMBL document CHEMBL1275314, “Synthesis and biological evaluation of some 1,3,4-oxadiazole derivatives” (Eur J Med Chem, 2010)
